From PubChem BioAssay AID1963428 (Molecular Pharmacology Branch, DTP, NCI, 2024)

Tested on: 171881-019-R-J1-PDC complex spheroid growth, % test/control
Assay: Anticancer human tumor 171881-019-R-J1-PDC patient-derived invasive breast carcinoma cell line growth inhibition [Asc]
Settings: for IC50: curve of first compound; for viability, T/C: stronger effect = lower value
Method: Multicellular complex tumor spheroid response to apoptosis pathway targeting inhibitors Alrizomadlin, Pelcitoclax, and Dasminapant in combination with a variety of drugs and investigational agents in selected tumor cell lines
The MDM2 inhibitor alrizomadlin, the Bcl-2/Bcl-xL inhibitor pelcitoclax, and the IAPs inhibitor dasminapant were evaluated both individually and in combination with standard of care and investigational anticancer small molecules within a complex spheroid model of solid tumors. . Complex spheroids include a stromal component modeled by human endothelial cells (HUVEC) and fibroblasts modeled by human mesenchymal stem cells (MSCs). The concentration ranges selected for each drug and investigational agent were based upon clinically achievable concentrations if the clinical Cmax of the agent was known.
Compounds. The drugs and investigational agents: alrizomadlin (APG-115; NSC831270), pelcitoclax (APG-1252; NSC835773), dasminapant (APG-1387;NSC834197), TAK-243 (NSC785004), copanlisib (NSC809693), olaparib (NSC753686), talazoparib (NSC767125), cobimetinib (NSC 768068), eltanexor (KPT-8602, NSC 794443), abemaciclib (NSC 768073), sotorasib (NSC818433), adagrasib (NSC 831453), MRTX-1133 (NSC 836407), Iadademestat (ORY1001, NSC 806812), and RMC-4630 (NSC839698), were obtained from the NCI Developmental Therapeutics Program Chemical Repository. The FDA-approved anticancer drug set is available from the Developmental Therapeutics Program at https://dtp.cancer.gov/organization/dscb/obtaining/available plates.htm. […] The stock solutions were prepared in dimethyl sulfoxide (DMSO, Sigma-Aldrich, St. Louis, MO, cat. D2650) at 800-fold the tested concentration and stored at -70 degrees C prior to their use. All drugs and investigational agents were tested over a range starting from a high concentration at or near the clinical Cmax and decreasing in half-log increments. If the clinical Cmax for an agent had not been determined, the highest concentration tested was 10 microM.
The patient-derived cancer (PDC) cell lines include five colon adenocarcinomas: 186277-243-T-J2-PDC, 616215-338-R-J1-PDC, 439559-082-T-J2-PDC, 463943-066-T-J2-PDC, and 519858-162-T-J1-PDC; three pancreatic carcinomas: 323965-272-R-J2-PDC, 521955-158-R6-J3-PDC, and 521955-158-R2-J5-PDC; two uterine sarcomas: 327498-152-R-J2-PDC and 993429-296-R-J1-PDC; two rhabdomyosarcomas: 755483-174-R-J1-PDC and 772245-204-R-J1-PDC; two soft tissue sarcomas: 126254-015-R-J1-PDC and 494315-158-R-J1-PDC; two malignant fibrous histiocytomas: 317291-083-R-J1-PDC and 596521-263-R-J1-PDC; two breast carcinomas: 171881-019-R-J1-PDC and 885512-296-R-J2-PDC; and one ovarian carcinoma: 6556581-035-R-J-PDC were obtained from the NCI PDMR, (https://pdmr.cancer.gov). The established cell lines HSSY-2 synovial sarcoma (RRID:CVCL 8719), SYO-1 synovial sarcoma (RRID:CVCL_7146), MPNST malignant peripheral neural sheath tumor were obtained from the Sloan Kettering Institute. The following established cell lines were purchased from the American Type Culture Collection (ATCC, Manassas, VA), Sor the received from the NCI repository:, PANC-1 pancreatic carcinoma (CRL-1469, RRID:CVCL_0480), OVCAR-5 ovarian carcinoma (RRID:CVCL_1628), OVCAR-8 ovarian carcinoma (RRID:CVCL_1629), , MCF-7 breast carcinoma (CRL-12584, RRID:CVCL_0031), MDA-MB-231 breast carcinoma (CRL-12532, RRID:CVCL_0062), NCI-H1876 small cell lung carcinoma (CRL-5902, RRID:CVCL_1503), NCI-H510A small cell lung carcinoma (HTB-184, RRID:CVCL_1565), NCI-H1417 (CRL-5869, RRID:CVCL_1469), and NCI-H196 small cell lung carcinoma (CRL-5823, RRID:CVCL_1509). Dr. Peter Houghton (Greehey Children's Cancer Research Institute, University of Texas Health Science Center, San Antonio, TX) provided Rh-18 rhabdomyosarcoma (RRID:CVCL_1659). Pooled donor human umbilical vein endothelial cells (HUVEC, Lonza, cat. CC-2519) and human mesenchymal stem cells (hMSC, Lonza, cat. PT-2501) were purchased from Lonza (Walkersville, MD).
Cell Culture. […]

[1] = second compound 0.03 µM, first compound 0.00316 µM
[2] = second compound 0.03 µM, first compound 0.01 µM
[3] = second compound 0.03 µM, first compound 0.0316 µM
[4] = second compound 0.03 µM, first compound 0.1 µM
[5] = second compound 0.0949 µM, first compound 0.00316 µM
[6] = second compound 0.0949 µM, first compound 0.01 µM
[7] = second compound 0.0949 µM, first compound 0.0316 µM
[8] = second compound 0.0949 µM, first compound 0.1 µM
[9] = second compound 0.3 µM, first compound 0.00316 µM
[10] = second compound 0.3 µM, first compound 0.01 µM
[11] = second compound 0.3 µM, first compound 0.0316 µM
[12] = second compound 0.3 µM, first compound 0.1 µM
[13] = second compound 0.949 µM, first compound 0.00316 µM
[14] = second compound 0.949 µM, first compound 0.01 µM
[15] = second compound 0.949 µM, first compound 0.0316 µM
[16] = second compound 0.949 µM, first compound 0.1 µM
[17] = second compound 3 µM, first compound 0.00316 µM
[18] = second compound 3 µM, first compound 0.01 µM
[19] = second compound 3 µM, first compound 0.0316 µM
[20] = second compound 3 µM, first compound 0.1 µM
[21] = second compound 0.03 µM, first compound 0.316 µM
[22] = second compound 0.03 µM, first compound 1 µM
[23] = second compound 0.0949 µM, first compound 0.316 µM
[24] = second compound 0.0949 µM, first compound 1 µM
[25] = second compound 0.3 µM, first compound 0.316 µM
[26] = second compound 0.3 µM, first compound 1 µM
[27] = second compound 0.949 µM, first compound 0.316 µM
[28] = second compound 0.949 µM, first compound 1 µM
[29] = second compound 3 µM, first compound 0.316 µM
[30] = second compound 3 µM, first compound 1 µM
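Wherever viability, T/C is given: spheroids exposed to compounds for 7 days.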

Cn1ncnc1[C@H]1c2n[nH]c(=O)c3cc(F)cc(c23)N[C@@H]1c1ccc(F)cc1 + CCN1C(C(=O)NC23CCC(C(=O)O)(CC2)CC3)C(c2cccc(Cl)c2F)C2(C(=O)Nc3cc(Cl)ccc32)C12CCCCC2
IC50 (second compound 0.03 µM): > 100 nM
IC50 (second compound 0.0949 µM): > 100 nM
IC50 (second compound 0.3 µM): > 100 nM
IC50 (second compound 0.949 µM): > 100 nM
IC50 (second compound 3 µM): > 100 nM
viability, T/C (second compound 0.03 µM, first compound 0.000316 µM): 93.2%
viability, T/C (second compound 0.03 µM, first compound 0.001 µM): 110%
viability, T/C [1]: 107%
viability, T/C [2]: 103%
viability, T/C [3]: 105%
viability, T/C [4]: 96.8%
viability, T/C (second compound 0.0949 µM, first compound 0.000316 µM): 102%
viability, T/C (second compound 0.0949 µM, first compound 0.001 µM): 95.5%
viability, T/C [5]: 95.8%
viability, T/C [6]: 111%
viability, T/C [7]: 104%
viability, T/C [8]: 114%
viability, T/C (second compound 0.3 µM, first compound 0.000316 µM): 99.5%
viability, T/C (second compound 0.3 µM, first compound 0.001 µM): 126%
viability, T/C [9]: 101%
viability, T/C [10]: 104%
viability, T/C [11]: 109%
viability, T/C [12]: 109%
viability, T/C (second compound 0.949 µM, first compound 0.000316 µM): 115%
viability, T/C (second compound 0.949 µM, first compound 0.001 µM): 115%
viability, T/C [13]: 120%
viability, T/C [14]: 108%
viability, T/C [15]: 115%
viability, T/C [16]: 120%
viability, T/C (second compound 3 µM, first compound 0.000316 µM): 119%
viability, T/C (second compound 3 µM, first compound 0.001 µM): 111%
viability, T/C [17]: 115%
viability, T/C [18]: 110%
viability, T/C [19]: 110%
viability, T/C [20]: 114%

O=C(c1cc(Cc2n[nH]c(=O)c3ccccc23)ccc1F)N1CCN(C(=O)C2CC2)CC1 + CCN1C(C(=O)NC23CCC(C(=O)O)(CC2)CC3)C(c2cccc(Cl)c2F)C2(C(=O)Nc3cc(Cl)ccc32)C12CCCCC2
IC50 (second compound 0.03 µM): > 10000 nM
IC50 (second compound 0.0949 µM): > 10000 nM
IC50 (second compound 0.3 µM): > 10000 nM
IC50 (second compound 0.949 µM): > 10000 nM
IC50 (second compound 3 µM): > 10000 nM
viability, T/C [3]: 123%
viability, T/C [4]: 101%
viability, T/C [21]: 102%
viability, T/C [22]: 105%
viability, T/C (second compound 0.03 µM, first compound 3.16 µM): 94.5%
viability, T/C (second compound 0.03 µM, first compound 10 µM): 103%
viability, T/C [7]: 113%
viability, T/C [8]: 92.5%
viability, T/C [23]: 115%
viability, T/C [24]: 97.5%
viability, T/C (second compound 0.0949 µM, first compound 3.16 µM): 110%
viability, T/C (second compound 0.0949 µM, first compound 10 µM): 113%
viability, T/C [11]: 102%
viability, T/C [12]: 116%
viability, T/C [25]: 117%
viability, T/C [26]: 95.1%
viability, T/C (second compound 0.3 µM, first compound 3.16 µM): 114%
viability, T/C (second compound 0.3 µM, first compound 10 µM): 107%
viability, T/C [15]: 110%
viability, T/C [16]: 103%
viability, T/C [27]: 105%
viability, T/C [28]: 102%
viability, T/C (second compound 0.949 µM, first compound 3.16 µM): 103%
viability, T/C (second compound 0.949 µM, first compound 10 µM): 108%
viability, T/C [19]: 108%
viability, T/C [20]: 121%
viability, T/C [29]: 101%
viability, T/C [30]: 94.9%
viability, T/C (second compound 3 µM, first compound 3.16 µM): 113%
viability, T/C (second compound 3 µM, first compound 10 µM): 106%

O=C(c1ccc(F)c(F)c1Nc1ccc(I)cc1F)N1CC(O)([C@@H]2CCCCN2)C1 + CCN1C(C(=O)NC23CCC(C(=O)O)(CC2)CC3)C(c2cccc(Cl)c2F)C2(C(=O)Nc3cc(Cl)ccc32)C12CCCCC2
IC50 (second compound 0.03 µM): 511 nM
IC50 (second compound 0.0949 µM): 660 nM
IC50 (second compound 0.3 µM): 581 nM
IC50 (second compound 0.949 µM): 455 nM
IC50 (second compound 3 µM): 286 nM
viability, T/C [1]: 102%
viability, T/C [2]: 100%
viability, T/C [3]: 113%
viability, T/C [4]: 153%
viability, T/C [21]: 60.5%
viability, T/C [22]: 35.2%
viability, T/C [5]: 91.6%
viability, T/C [6]: 91.1%
viability, T/C [7]: 151%
viability, T/C [8]: 151%
viability, T/C [23]: 69.5%
viability, T/C [24]: 39%
viability, T/C [9]: 87.6%
viability, T/C [10]: 108%
viability, T/C [11]: 132%
viability, T/C [12]: 144%
viability, T/C [25]: 61.3%
viability, T/C [26]: 39.9%
viability, T/C [13]: 96.2%
viability, T/C [14]: 111%
viability, T/C [15]: 157%
viability, T/C [16]: 127%
viability, T/C [27]: 56%
viability, T/C [28]: 37%
viability, T/C [17]: 112%
viability, T/C [18]: 128%
viability, T/C [19]: 174%
viability, T/C [20]: 111%
viability, T/C [29]: 48.2%
viability, T/C [30]: 40.1%
